Measurements from article PMC8953856, “α/β-Peptides as Nanomolar Triggers of Lipid Raft-Mediated Endocytosis through GM1 Ganglioside Recognition” (Pharmaceutics, 2022).
No end group written: not given here.

How the values were obtained:
[1] = Protease assay with chymotrypsin; type: in vitro ADME; details: chymotrypsin (isolated protease) in buffer; 100 mM TRIS–HCl pH 8.0 with 10 mM CaCl2; peptide 100 mM (so in the source); 50 mL of 0.5 mg/mL chymotrypsin stock to 500 mL peptide solution (so in the source); samples at 2, 6, 25, 60 min; HPLC–MS; < 24 = peak not detected at 2 min, 3% detection limit
Description: (§1) Protease assays: Peptides were dissolved in 100 mM TRIS–HCl buffer (pH 8.0) containing 10 mM CaCl2 at 100 mM concentration. Chymotrypsin (Sigma-Aldrich, Budapest, Hungary) stock solution was 0.5 mg/mL in the same buffer. A total […] peptide solution was measured in a reaction vessel and […] protease stock was added. Samples of […] were taken after 2, 6, 25 and 60 min. The samples were diluted into […] 5% TFA aliquots. The samples were then injected into HPLC–MS using a Phenomenex C18-XB Peptide column (250 × 4.6 mm, […]).

[2] = Protease assay with trypsin; type: in vitro ADME; details: trypsin (isolated protease) in buffer; 100 mM TRIS–HCl pH 8.0 without CaCl2; peptide 100 mM (so in the source); protease stock 0.5 mg/mL; samples at 2, 6, 25, 60 min; HPLC–MS; < 24 = peak not detected at 2 min, 3% detection limit
Chymotrypsin = molecular target: T1, Chymotrypsin (Bos taurus, UniProt P00766); assay: Protease assay with chymotrypsin; type: in vitro ADME; details: chymotrypsin (isolated protease) in buffer; 100 mM TRIS–HCl pH 8.0 with 10 mM CaCl2; peptide 100 mM (so in the source); 50 mL of 0.5 mg/mL chymotrypsin stock to 500 mL peptide solution (so in the source); samples at 2, 6, 25, 60 min; HPLC–MS; < 24 = peak not detected at 2 min, 3% detection limit
T1 construct: purchased Sigma-Aldrich
Description: as §1

ganglioside GM1 = assay: Isothermal titration calorimetry (ITC) with GM1:DPC 1:5 bicelles; type: binding; details: 35 °C, GM1:DPC 1:5 (GM1 300 µM in syringe) injected into 15 µM ligand in cell, pH 7.2 phosphate buffer, one- or two-site fit, experiments repeated twice; for Kd: read-out: Binding affinities (KD) to ganglioside GM1
Description: Isothermal Titration Calorimetry: ITC was performed using a MicroCal VP-ITC microcalorimeter at 35 °C. The monosialoganglioside GM1 was obtained from Biosynth-Carbosynth (Bratislava, Slovakia, product code: OG03918, C73H131N3O31·xNa, HPLC purity > 95%). The n-dodecylphosphocholine (DPC) was obtained from Avanti (Alabaster, Alabama, product code: 850336, C17H38NO4P, purity > 99%). In individual titrations, 15 µL of solution containing GM1:DPC 1:5 was injected into the ligand solution in the cell from a computer-controlled 300 µL microsyringe at time intervals of 300 s. The GM1:DPC micelle mixture was prepared in the same pH 7.2 phosphate buffer as the ligand in the cell. The concentration of the ligand in the cell was 15 µM. The concentration of GM1 in the syringe was 300 µM. In control experiments, GM1:DPC was titrated into the cell containing buffer without ligand. To rule out lipid clustering, control measurements were performed with pure GM1 in the syringe, which yielded a […], indicating the GM1:DPC interaction in the micelles (Figure S6). No aggregation of the micelles was observed after titration, which rules out any secondary inter-particle effects induced by ligand binding. We note that such an uncontrolled aggregation phenomenon would have been detrimental to the very sensitive ITC detection. Our finding is in agreement with the literature results that mixed micelles of GM1 and DPC are readily formed. The experiments were repeated twice. The experimental data were fitted to one-binding-site or two-independent-site models with adjustable parameters of ΔHb1, Kd1, n1, and ΔHb2, Kd2, n2, respectively. Background subtraction and spline baseline correction was applied prior to the application of a generalized reduced gradient nonlinear least-squares procedure. […] Errors were estimated by using jack-knife resampling.

half-life [1] [min] | half-life [2] [min] | Kd (ganglioside GM1) [µM] | Compound | other results
< 0.4 | < 0.4 |  | NCCCC[C@H](NC(=O)[C@H](Cc1ccc(O)cc1)NC(=O)[C@@H](N)Cc1c[nH]c2ccccc12)C(=O)N[C@@H](Cc1ccc(O)cc1)C(=O)N[C@H](CC(N)=O)Cc1c[nH]c2ccccc12 [WYKYWβ] | 
< 0.4 | 6.83 |  | NCCCC[C@H](NC(=O)[C@H](Cc1ccc(O)cc1)NC(=O)[C@@H](N)Cc1c[nH]c2ccccc12)C(=O)N[C@H](CC(=O)N[C@@H](Cc1c[nH]c2ccccc12)C(N)=O)Cc1ccc(O)cc1 [WYKYβW] | 
 |  |  | NCCCC[C@@H](CC(=O)N[C@@H](Cc1ccc(O)cc1)C(=O)N[C@@H](Cc1c[nH]c2ccccc12)C(N)=O)NC(=O)[C@H](Cc1ccc(O)cc1)NC(=O)[C@@H](N)Cc1c[nH]c2ccccc12 [WYKβYW] | half-life (Chymotrypsin): 10.8 min
 | 15 |  | NCCCC[C@H](NC(=O)C[C@H](Cc1ccc(O)cc1)NC(=O)[C@@H](N)Cc1c[nH]c2ccccc12)C(=O)N[C@@H](Cc1ccc(O)cc1)C(=O)N[C@@H](Cc1c[nH]c2ccccc12)C(N)=O [WYβKYW] | half-life (Chymotrypsin): 1.25 min
< 0.4 | 1.83 |  | NCCCC[C@H](NC(=O)[C@H](Cc1ccc(O)cc1)NC(=O)C[C@@H](N)Cc1c[nH]c2ccccc12)C(=O)N[C@@H](Cc1ccc(O)cc1)C(=O)N[C@@H](Cc1c[nH]c2ccccc12)C(N)=O [WβYKYW] | 
 |  |  | AYKYW [Ala derivative of WYKYW, position 1] | Binding affinities (KD) to ganglioside GM1 (ganglioside GM1): n.f. ^[a]
 |  | 5.75 | WAKYW-NH2 [WAKYW] | 
 |  | 10.5 | WYAYW-NH2 [WYAYW] | 
 |  | 1.69 | WYKAW-NH2 [WYKAW] | 
 |  | 1.06 | WYKYA-NH2 [WYKYA] | 
